Experimental data published in patent publication US7193033B2, “Peptide having appetite stimulating activity” (Takeda Pharmaceutical Company Limited, priority 2001, dated 2007).
Ends that are not written are not given here.

Experiments:
GPR8 [1] = molecular target: T1, GPR8 (Homo sapiens, UniProt P48146); experiment: Receptor binding test using [125I-Tyr10]-hGPR8L (1–23) and GPR8-expressed CHO cell membrane fraction; settings: inhibition of [125I-Tyr10]-hGPR8L (1–23) binding; membrane fraction 5 μg/ml
T1 construct: expressed in transfected cells
Method: Receptor binding test was carried out using [^125I]-labeled hGPR8L (1–23) prepared as described in EXAMPLE 42 and the cell membrane fraction prepared from GPR8-expressed CHO cells prepared in a similar manner to the procedures described in EXAMPLE 6.
The cell membrane fraction prepared from human GPR8-expressed CHO cells was diluted with an assay buffer (25 mM Tris-HCl, 5 mM EDTA (ethylenediaminetetraacetic acid), 0.05% CHAPS (3-[(3-cholamidopropyl)dimethlammonio]-1-propanesulfonate), 0.1% BSA (bovine serum albumin), 0.25 mM PMSF (phenylmethylsulfonyl fluoride), 1 μg/ml pepstatin, 20 μg/ml leupeptin, pH 7.4) in various concentrations. Subsequently, 200 μl each of the dilution was dispensed in a polypropylene tst tube (Falcon 2053). […] After filtration, the residual radioactivity remained on the filter paper was measured with a γ-counter, and the specific binding (SB) was estimated by subtracting the non-specific binding from the total binding. […]
The receptor binding activity of the human and porcine homologue derivatives of the GPR8 ligand peptide, which synthesis was described in the specification, was determined s described in EXAMPLE 43, using the GPR8-expressed cell membrane fraction and [^125I-Tyr^10]-hGPR8L (1–23). […]

GPR8 [2] = molecular target: T1, GPR8; experiment: GTPγ S binding promoting activity on GPR8-expressed CHO cell membrane fraction; assay type: biochemical
Method: The [^35S]-guanosine 5′-(γ-thio)triphosphate binding promoting activity on a GPR8-expressed CHO cell membrane fraction was assayed by the following procedures. First, preparation of the membrane fraction is described. To 1×10^8 of CHO/GPR8 cells was added 10 ml of a homogenate buffer (10 mM NaHCO3, 5 mM EDTA, 0.5 mM PMSF, 1 μg/ml pepstatin, 4 μg/ml E64, 20 μg/ml leupeptin). The mixture was homogenized by using Polytron (12,000 rpm, 1 min.). The cell homogenate was subjected to centrifugation (1,000 g, 15 mins.) to obtain the supernatant. Next, the supernatant was subjected to ultracentrifugation (Beckman type 30 rotor, 30,000 rpm, 1 hour). The resulting precipitate was used as GPR8-expressed CHO cell membrane fraction.
The GTPγ S binding activity was assayed as follows. The GPR8-expressed CHO cell membrane fraction was diluted with a membrane dilution buffer (50 mM Tris-hydrochloride buffer (pH 7.4), 5 mM MgCl2, 150 mM NaCl, 1 μM GDP) to prepare a cell membrane fraction solution for assay having a protein level of […]. To 200 μl of the cell membrane fraction solution for assay were added 2 μl of 51.5 nM [^35S]-guanosine 5′-(γ-thio)triphosphate (NEN Co.) and a sample fluid. […] After washing twice with 1.5 ml of a wash buffer (50 mM Tris-hydrochloride buffer (pH 7.4), 5 mM MgCl2, 1 mM EDTA, 0.1% BSA), radioactivity of the filter was measured with a liquid scintillation counter. […]

T1 sequence (P48146 whole entry): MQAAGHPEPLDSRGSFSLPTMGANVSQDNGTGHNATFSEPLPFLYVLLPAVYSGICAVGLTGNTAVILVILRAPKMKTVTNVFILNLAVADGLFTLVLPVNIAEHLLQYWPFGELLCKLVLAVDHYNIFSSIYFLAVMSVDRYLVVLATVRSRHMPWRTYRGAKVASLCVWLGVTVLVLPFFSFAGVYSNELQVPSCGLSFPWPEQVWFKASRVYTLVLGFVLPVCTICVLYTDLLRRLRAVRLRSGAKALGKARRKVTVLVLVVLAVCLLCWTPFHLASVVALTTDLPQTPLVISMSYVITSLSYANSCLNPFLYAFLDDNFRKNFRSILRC

| Compound | IC50 (GPR8 [1]) | EC50 (GPR8 [2]) |
| --- | --- | --- |
| CSCC[C@H](NC(=O)[C@H](CC(C)C)NC(=O)[C@H](CC(C)C)NC(=O)CNC(=O)[C@H](C)NC(=O)[C@H](C)NC(=O)[C@H](CCCNC(=N)N)NC(=O)CNC(=O)[C@@H](NC(=O)[C@@H](NC(=O)[C@H](Cc1c[nH]cn1)NC(=O)[C@H](Cc1ccc(O)cc1)NC(=O)[C@H](CCCNC(=N)N)NC(=O)[C@@H]1CCCN1C(=O)[C@H](CO)NC(=O)[C@H](C)NC(=O)[C@@H](NC(=O)[C@H](Cc1c[nH]cn1)NC(=O)[C@H](CCCCN)NC(=O)[C@H](Cc1ccc(O)cc1)NC(=O)[C@H](Cc1c[nH]c2ccccc12)NC(=O)OCC1c2ccccc2-c2ccccc21)C(C)C)[C@@H](C)O)C(C)C)C(=O)NCC(=O)N[C@@H](CC(C)C)C(=O)O [Fmoc-hGPR8L(1–23)] | 0.2 nM | – |
| H-WYKHVASPRYHTVGRAAG [hGPR8L(1–18), Trp-Tyr-Lys-His-Val-Ala-Ser-Pro-Arg-Tyr-His-Thr-Val-Gly-Arg-Ala-Ala-Gly] | – | > 10000 nM |
| H-WYKHVASPRYHTVGRAAGLL [hGPR8L(1–20)] | 0.2 nM | – |
